“Also recorded” adds a separate entry of the source.
How the values were obtained:
[1] = tested on: naïve CD4+ T cells; assay: Naïve CD4+ T cell differentiation under Th1 polarizing conditions (ELISA, flow cytometry); type: cell-based, mouse
Method: The inventors next investigated whether NAD^− regulates CD4^+ T cell differentiation in Th1 polarizing conditions. Isolated naïve CD4^+ T cells were cultured with anti-CD3/CD28 antibodies in presence of recombinant IL-12 and IL-2 cytokines and anti-IL4 antibody. […] In contrast to Th0 polarizing conditions, NAD^+ induced a robust IL-10 secretion (>3500 pg/ml) in Th1 cytokine environment (FIG. 1A). Furthermore, pro-inflammatory cytokines such as TNF-α and IL-6 were reduced by NAD^+ (FIG. 7C). […] Furthermore, the study tested whether NAD^+ promoted the shift of human CD4^+ T helper cells in Th1 polarizing conditions towards IL-10 cytokine production. Human peripheral blood CD4^| T cells were activated with anti-CD3/CD28 antibodies under Th1 polarizing conditions (recombinant IL-12 and IL-2 cytokines and anti-IL4 antibody) with increasing concentrations of NAD+. After 96 hours of culture, CD4^+IL-10^+IFNγ^+ cell frequency was assessed by flow cytometry analysis.
(§1) Single-cell leukocyte suspensions were obtained from spleens from 8-10 week old DBA mice and CD4^− T cells were isolated by negative selection using a CD4^+ T cell isolation kit (MILTENYI BIOTEC, Bergisch Gladbach, Germany). Cells were further sorted using α-CD4-PE (EBIOSCIENCE, San Diego, Calif.) and purities of CD4^+ T cells after isolation were >98%.
(§2) All recombinant cytokines and antibodies were purchased from EBIOSCIENCE except recombinant TGF-β cytokine (R&D SYSTEMS, Minneapolis, Minn.). After 96 hrs of culture supernatants and cells were collected and analyzed by ELISA and flow cytometry, respectively.
(§3) Fluorescently labeled anti-mouse α-CD4 (GK1.5), α-CD25 (PC61), α-IFN-γ (XMG1.2) and unlabeled α-CD16/CD32 (2.4G2) antibodies were obtained from BD BIOSCIENCES (San Jose, Calif.). Fluorescently labeled anti-mouse α-IL-4 (FJK-16s), α-IL-10 (JES5-16E3), α-IL-17A (eBio17B7), and anti-TGFβ (TW7-16B4) were obtained from eBIOSCIENCE (San Diego, Calif.). Intracellular staining for IL-4, IL-10, IL-17A, IFNγ and TGFβ was performed according to manufacturers' protocols. Splenocytes were re-stimulated in complete media (RPMI media containing 10% FCS, 1% L-Glutamine, 1% Penicillin/Streptomycin; all Bio Whittaker, Walkersville, Md.) for 4 hours at 37° C. with ionomycin, phorbol 12-myristate 13-acetate and Brefelding A (EBIOSCIENCE). Cells were fixed and permeabilized using CYTOFIX/CYTOPERM solution (BD BIOSCIENCES). Flow cytometry measurements of single-cell suspensions were performed on a FACSCalibur using standard procedures and data were analyzed using FLOWJO software (TREE STAR, Ashland, Oreg.).

[2] = tested on: NOD/Schilt mice; assay: Type 1 diabetes mouse model; type: in vivo
Method: NOD/Schilt mice were used to assess the role of NAD+ as a treatment for Type I Diabetes (T1D). By the 20th week, […] started consistently rising above the normal average. By week 25, […] were detected over 600 mg/dL. These levels were consistently high for 1 week before treatment with NAD+ was initiated. Treatment with NAD+ was given daily at 40 mg per mouse.
It is important to note that most T1D studies begin treating diabetic animals when glucose levels reach 250 mg/dl or greater for 2 consecutive days.

[3] = tested on: naïve CD4+ T cells; assay: Naïve CD4+ T cell differentiation under Th2 polarizing conditions; type: cell-based, mouse
Method: Next, the effects of NAD^+ on activated CD4+ T cells were tested in Th2 polarizing conditions. […] In the absence of NAD^−, CD4^+ T cells cultured in Th2 cytokine environment barely produced IL-17A cytokine while in the presence of increasing concentrations of NAD^+, cultured cells produced large amounts (>2000 pg/ml) in a dose dependent manner (FIG. 2A). […] In contrast, production of the pro-inflammatory cytokine TNF-α was inhibited in the presence of NAD^− (FIG. 7D). […] Thus, these findings indicate that NAD^+ drives the switch from classical Th2/IL-10^+ toward Th2/IL-17A^+ producing cells.
as §1, §2, §3

[4] = tested on: naïve CD4+ T cells; assay: Naïve CD4+ T cell differentiation under iTreg polarizing conditions; type: cell-based, mouse
Source text: Next, it was investigated whether NAD^+ modulates CD4^+ T differentiation under iTreg polarizing conditions. Isolated naïve CD4^+ T cells were activated with anti-CD3/CD28 antibodies in presence of recombinant TGFβ and IL-2 cytokines and blocking anti-IL-4, anti-IL-12 and anti-IFNγ antibodies.
as §1, §2, §3

## NC(=O)c1ccc[n+]([C@@H]2O[C@H](COP(=O)([O-])OP(=O)(O)OC[C@H]3O[C@@H](n4cnc5c(N)ncnc54)[C@H](O)[C@@H]3O)[C@@H](O)[C@H]2O)c1 [NAD+, nicotinamide adenine dinucleotide]
[1]; 96 hrs, ELISA
  IFN-γ cytokine production: did not change
  IL-6 production: reduced
  IL-10 secretion: > 3500 pg/mL
  IL-17A cytokine production: 400 pg/mL
  TNF-α production: reduced
[1]; flow cytometry
  IL-10 production by Th1-IFN-γ producing cells: promoted
  frequency of CD4+IFN-γ cells: increased frequencies
  frequency of CD4+IL17A+ cells: increased frequencies
  frequency of CD4+IL-10+ cells: increased frequencies
[2]; diabetic mice (higher than 600 mg/dl), NAD+ daily 40 mg per mouse
  blood glucose levels: much lower levels; also recorded: marked decrease
[2]; diabetic mice (over 600 mg/dL), NAD+ daily 40 mg per mouse, 5 days after treatment
  insulin levels: started to decline at a significant rate
[2]; within 10 days of NAD+ treatment
  activity of lethargic type 1 diabetic mice: became much more active and aggressive
[3]; 96 hrs, ELISA
  IL-4 cytokine production: did not affect
  IL-10 cytokine production: reduced
[3]; ELISA
  IL-13 cytokine production: did not affect
  TNF-α production: inhibited
[3]; flow cytometry
  CD4+IL10+ cell frequency: decreased number
  CD4+IL17A+ cells: increased number
  CD4+IL-4+ cell frequency: no changes
[3]; increasing NAD+, dose dependent, ELISA
  IL-17A secretion: > 2000 pg/mL
[4]
  amount of TGFβ: reduced amount
[4]; ELISA
  IL-6 production: remained unchanged
  IL-10 secretion: reduced
  IL-17A cytokine production: increased
  TNF-α production: inhibited
[4]; flow cytometry
  frequency of CD4+IL10+ cells: robust decreased frequency
  frequency of CD4+IL17A+ cells: increased frequency
  number of CD4+TGFβ+IL-10+ cells: decreased number
